Source: patent publication US20170305922A1, “CARM1 INHIBITORS AND USES THEREOF” (Epizyme, Inc., priority 2014, published 2017)

Experiments:
[1] = tested on: asymmetric di-methyl PABP1 in RKO cells; test: RKO methylation assay: In Cell Western (ICW) for asymmetric di-methyl PABP1 (PABP1me2a); settings: Homo sapiens, RKO, 48 h, Cellular-based (PABP1me2a) ICW (In Cell Western) assay
Procedure, shortened: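 In-cell western on compound-exposed RKO cells (48 hours): asymmetric di-methyl PABP1 detected by antibody at 800 nm, DNA content by DRAQ5 at 700 nm. Percent inhibition from signal ratios against DMSO (minimum) and 20 μM reference compound (maximum) wells; IC50 curves fitted from triplicates.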

Human CARM1 (PRMT4) = molecular target: T1, Human CARM1 (PRMT4) (Homo sapiens, UniProt Q86X55); test: CARM1 enzyme assay on peptide substrates (3H-SAM Flashplate); settings: Biochemical assay; CARM1 0.25 nM, 3H-SAM 30 nM, peptide 250 nM; read-out: Biochem IC50
T1 construct: Flag-CARM1-His was eluted with 200 ug/ml FLAG peptide in buffer A; made in house; host or cells: HEK 293F cells infected with recombinant baculovirus (pFastBacMam)
T1 sequence (Q86X55 1-585 isoform Q86X55-1): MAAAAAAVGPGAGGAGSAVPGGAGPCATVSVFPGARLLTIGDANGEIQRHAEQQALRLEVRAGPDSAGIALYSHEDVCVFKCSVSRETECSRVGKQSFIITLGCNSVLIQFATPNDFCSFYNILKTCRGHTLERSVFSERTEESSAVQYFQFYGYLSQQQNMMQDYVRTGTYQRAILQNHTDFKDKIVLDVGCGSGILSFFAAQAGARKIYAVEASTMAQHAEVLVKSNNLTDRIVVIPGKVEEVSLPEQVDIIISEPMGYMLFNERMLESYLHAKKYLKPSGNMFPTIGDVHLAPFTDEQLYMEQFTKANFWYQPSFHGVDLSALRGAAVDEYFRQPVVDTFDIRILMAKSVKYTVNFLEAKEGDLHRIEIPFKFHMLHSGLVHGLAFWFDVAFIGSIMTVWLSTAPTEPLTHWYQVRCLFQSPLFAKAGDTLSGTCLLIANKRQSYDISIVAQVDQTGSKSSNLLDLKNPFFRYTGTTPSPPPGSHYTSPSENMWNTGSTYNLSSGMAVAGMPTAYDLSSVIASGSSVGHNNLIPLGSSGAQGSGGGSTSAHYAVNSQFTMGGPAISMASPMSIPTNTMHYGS

Row | SMILES | IC50 [1] [nM] | IC50 (Human CARM1 (PRMT4)) [nM]
1 | CNC[C@@H](O)COc1ccc(Cl)c(-c2nc(-c3c(C)noc3C)c(C)c(N3CC4(CCC4(F)F)C3)n2)c1 [Example 250] | 217 | 3.94
2 | CNC[C@@H](O)COc1ccc(Cl)c(-c2nc(-c3c(C)noc3C)c(C)c(N3Cc4ccc(N(C)C)nc4C3)n2)c1 [Example 258] | 29.9 | 1.83
3 | CNC[C@@H](O)COc1ccc(Cl)c(-c2nc(-c3c(C)noc3C)c(C)c(N3CC(C)(C(=O)N4CCC4)C3)n2)c1 [Example 187] | 337 | 5.8
4 | CNC[C@@H](O)COc1ccc(Cl)c(-c2nc(-c3cnn(CC(F)F)c3)c(C)c(-c3c(C)noc3C)n2)c1 [Example 119] | 340 | 7.6
5 | CNC[C@@H](O)COc1ccc(Cl)c(-c2nc(-c3c(C)noc3C)c(C)c(N3CC4(CC(N(C)CC(F)F)C4)C3)n2)c1 [Example 289] | 76 | 4.08
6 | CNC[C@@H](O)COc1cccc(-c2nc(-c3c(C)noc3C)c(C)c(N3CC4(CCN(C(=O)OC)CC4)C3)n2)c1Cl [Example 350] | 7200 | 37.2
7 | CNC[C@@H](O)COc1ccc(Cl)c(-c2nc(-c3c(C)noc3C)c(C)c(N3CC4(CC(OC)C4)C3)n2)c1 [Example 79] | 60 | 9.3
8 | CNC[C@@H](O)COc1ccc(Cl)c(-c2nc(-c3c(C)noc3C)c(C)c(N3CC4(CCC(SC)CC4)C3)n2)c1 [Example 83] | 74 | 3.3
9 | CNC[C@@H](O)COc1ccc(Cl)c(-c2nc(-c3c(C)noc3C)c(C)c(N3CC4=C(CN(C)CC4)C3)n2)c1 [Example 237] | 157 | 0.6
10 | CNC[C@@H](O)COc1ccc(Cl)c(-c2nc(-c3c(C)noc3C)c(C)c(N3CC4(C3)CC3(C4)OCCO3)n2)c1 [Example 276] | 75.7 | 4.92
11 | CCn1ncc(C)c1-c1nc(-c2cc(OC[C@H](O)CNC)ccc2Cl)nc(N2Cc3cncnc3C2)c1C [Example 88] | 222 | 4.6
12 | CNC[C@@H](O)COc1ccc(Cl)c(-c2nc(-c3c(C)noc3C)c(C)c(N3Cc4cnc(OCCOC)nc4C3)n2)c1 [Example 106] | 25 | 5.5
13 | CNC[C@@H](O)COc1ccc(Cl)c(-c2nc(-c3c(C)noc3C)c(C)c(N3Cc4cnn(C(C)C)c4C3)n2)c1 [Example 28] | 41 | 3.2
14 | CNC[C@@H](O)COc1ccc(Cl)c(-c2nc(-c3c(Br)cnn3C)c(C)c(N3CC4(CN(C(=O)OC)C4)C3)n2)c1 [Example 266] | 310 | 6.83
15 | CNC[C@@H](O)COc1ccc(Cl)c(-c2nc(-c3c(C)noc3C)c(C)c(N3CC4(CN(CCC#N)C4)C3)n2)c1 [Example 277] | 1470 | 8.24
16 | CNC[C@@H](O)COc1ccc(Cl)c(-c2nc(-c3c(C)c(Cl)nn3C)c(C)c(N3Cc4cnc(N(C)C)nc4C3)n2)c1 [Example 168] | 26 | 2.5
17 | CNC[C@@H](O)COc1ccc(Cl)c(-c2nc(-c3c(C)noc3C)c(C)c(N3CC4(CCC4OC)C3)n2)c1 (some centres unmarked) [Example 288] | 234 | 3.86
18 | CCc1onc(C)c1-c1nc(-c2cc(OC[C@H](O)CNC)ccc2Cl)nc(N2CC3(CN(CC(F)(F)F)C3)C2)c1C [Example 227] | 59 | 8
19 | CNC[C@@H](O)COc1ccc(Cl)c(-c2nc(-c3c(C)c(Br)nn3C)c(C)c(N3CC4(CN(CCC#N)C4)C3)n2)c1 [Example 298] | 244 | 3.11
20 | CNC[C@@H](O)COc1ccc(Cl)c(-c2nc(-c3c(C)c(Cl)nn3C)c(C)c(N3CC4(CC(OC)C4)C3)n2)c1 [Example 193] | 52 | 4.1

Row | SMILES | IC50 [1] [nM] | IC50 (Human CARM1 (PRMT4)) [nM]
21 | CNC[C@@H](O)COc1ccc(Cl)c(-c2nc(-c3c(C)noc3C)c(C)c(N3CC4(CC(Cl)C4)C3)n2)c1 [Example 141] | 173 | 3.7
22 | CNC[C@@H](O)COc1ccc(Cl)c(-c2nc(CCC3CCN(C(=O)OC)CC3)c(C)c(-c3c(C)noc3C)n2)c1 [Example 107] | 176 | 11.2
23 | CNC[C@@H](O)COc1ccc(Cl)c(-c2nc(-c3c(C)c(Br)nn3C)c(C)c(N3CC(CCl)(CNCC(F)(F)F)C3)n2)c1 [Example 304] | 142 | 6.81
24 | CCn1ncc(C)c1-c1nc(-c2cc(OC[C@H](O)CNC)ccc2Cl)nc(N2CC3(CCN(C(=O)OC)CC3)C2)c1C [Example 87] | 205 | 9
25 | CNC[C@@H](O)COc1cccc(-c2nc(-c3c(C)c(Cl)nn3C)c(C)c(N3Cc4cccnc4C3)n2)c1 [Example 85] | 83 | 1.1
26 | CNC[C@@H](O)COc1ccc(Cl)c(-c2nc(-c3c(C)noc3C)c(C)c(N3Cc4cn(C5CCOCC5)nc4C3)n2)c1 [Example 136] | 172 | 5.1
27 | CNC[C@@H](O)COc1ccc(Cl)c(-c2nc(-c3c(C)noc3C)c(C)c(N3Cc4ccc(N5CC(F)C5)nc4C3)n2)c1 [Example 259] | 22.9 | 2.17
28 | CNC[C@@H](O)COc1ccc(Cl)c(-c2nc(-c3c(C)noc3C)c(C)c(N3CC4(CC(C(=O)N(C)C)C4)C3)n2)c1 [Example 91] | 92 | 5.5
29 | CNC[C@@H](O)COc1ccc(Cl)c(-c2nc(-c3c(C)noc3C)c(C)c(N3CC4(CCC(OC)C4)C3)n2)c1 (some centres unmarked) [Example 263] | 90.9 | 5.36
30 | CNC[C@@H](O)COc1ccc(Cl)c(-c2nc(-c3c(C)c(Br)nn3C)c(C)c(N3CC4(CC(OCC(F)F)C4)C3)n2)c1 [Example 303] | 37.6 | 5.91
31 | CNC[C@@H](O)COc1ccc(Cl)c(-c2nc(-c3c(C)noc3C)c(C)c(N3CC4(CCN4CC(F)F)C3)n2)c1 [Example 108] | 164 | 18.3
32 | CNC[C@@H](O)COc1ccc(Cl)c(-c2nc(-c3c(C)noc3C)c(C)c(N3Cc4cc(=O)n(C(C)C)cc4C3)n2)c1 [Example 73] | 422 | 6.1
33 | CNC[C@@H](O)COc1ccc(F)c(-c2nc(-c3c(C)noc3C)c(C)c(N3CC4(CC=CCC4)C3)n2)c1 [Example 57] | 276 | 3.4
34 | CC[C@H]1CN(c2nc(-c3cc(OC[C@H](O)CNC)ccc3Cl)nc(-c3c(C)noc3C)c2C)CCN1C(=O)OC [Example 206] | 696 | 5.4
35 | CNC[C@@H](O)COc1ccc(Cl)c(-c2nc(-c3c(C)noc3C)c(C)c(N3CC4(CCCN(CC(F)F)C4)C3)n2)c1 [Example 337] | 60 | 4.98
36 | CNC[C@@H](O)COc1ccc(Cl)c(-c2nc(-c3c(C)noc3C)c(C)c(N3CC4(CCN(C(=O)OCC(F)F)CC4)C3)n2)c1 [Example 191] | 174 | 10.5
37 | CCOc1ncc2c(n1)CN(c1nc(-c3cc(OC[C@H](O)CNC)ccc3Cl)nc(-c3c(C)noc3C)c1C)C2 [Example 72] | 12 | 2.9
38 | CNC[C@@H](O)COc1ccc(Cl)c(-c2nc(-c3c(C)noc3C)c(C)c(N3Cc4cnn(CC(F)F)c4C3)n2)c1 [Example 26] | 66 | 3.4
39 | CNC[C@@H](O)COc1ccc(Cl)c(-c2nc(-c3c(C)noc3C)c(C)c(N3C[C@H]4C[C@@H]3CN4C(=O)OC)n2)c1 [Example 130] | 960 | 5.9
40 | CNC[C@@H](O)COc1ccc(Cl)c(-c2nc(-c3c(C)noc3C)c(C)c(N3Cc4cccnc4C3C)n2)c1 (some centres unmarked) [Example 123] | 163 | 3.4
